Reference: patent publication US20060183901A1, “Crystalline form of an indazole-carboxamide compound” (THERAVANCE, INC., priority 2005, published 2006)

What was measured:
Format in all cases: physicochemical
[1] = Thermogravimetric analysis (TGA)
Protocol: Thermogravimetric analysis (TGA) was performed using a TA Instruments Model Q-500 module. Data were collected and analyzed using TA Instruments Thermal Advantage for Q Series™ software. […] The balance and furnace chambers were purged with nitrogen during use. Representative TGA traces for samples of crystalline dihydrochloride and dihydrobromide salts of the invention are also shown in FIGS. 2 and 4, respectively.
(§1) The crystalline acid salts of the compound of formula I of Comparative Examples 1-4 were analyzed by PXRD, DSC, and TGA. The temperatures at which endothermic heat flow was observed by DSC, and weight loss was observed by TGA, along with confirmation of crystallinity by PXRD are summarized in Table II where the stoichiometry is indicated by the number of molar equivalents of acid used to prepare the acid salt.

[2] = Differential scanning calorimetry (DSC)
Protocol: Differential scanning calorimetry (DSC) was performed using a TA Instruments
Model Q-100 module. Data were collected and analyzed using TA Instruments Thermal Advantage for Q Series™ software. A sample of about 1-2 mg was accurately weighed into an aluminum pan with lid. The sample was evaluated using a linear heating ramp of 5° C./min from ambient temperature to at least 225° C. The DSC cell was purged with dry nitrogen during use. Representative DSC traces for samples of the crystalline dihydrochloride and dihydrobromide salts of the invention are shown in FIGS. 2 and 4, respectively.
as §1

[3] = Dynamic moisture sorption assessment; settings: humidity range of 40% to 60% relative humidity
Protocol: Dynamic moisture sorption (DMS) assessment was performed at 25° C. using a VTI atmospheric microbalance, SGA-100 system (VTI Corp., Hialeah, Fla. 33016). A sample size of approximately 5-10 mg was used and the humidity was set at the ambient value at the start of the analysis. A typical DMS analysis consisted of three scans: ambient to 2% relative humidity (RH), 2% RH to 90% RH, 90% RH to 5% RH at a scan rate of 5% RH/step. The mass was measured every two minutes and the RH was changed to the next value (+5% RH) when the mass of the sample was stable to within 0.01% for 5 consecutive points. Representative DMS traces for samples of crystalline dihydrochloride and dihydrobromide salts of the invention are shown in FIGS. 5 and 6, respectively.

[4] = Solid state stability assessment (HPLC, Karl Fischer)
Protocol: Samples of the dihydrochloride salt of the invention, about 100 mg each, were stored in multiple 4 mL glass vials with Teflon lined lids at 25° C. and 60% relative humidity (RH) and at 40° C. and 75% RH in open and closed containers. At specific intervals, the contents of a representative vial was removed and analyzed by the Karl Fisher method for water content and by the following HPLC method: • Column: Agilent Zorbax Bonus RP, 4.6×250 mm, 5 μm (Agilent Part No. 880668-901); • Mobile Phase A: 88% water, 2% acetonitrile, 10% 100 mM potassium phosphate; • Mobile Phase B: 20% water, 70% acetonitrile; 10% 100 mM potassium phosphate; • Flow rate: 1.5 mL/min; • Injection Volume: 10 μL • Detector: 214 nm; • Gradient—Time in minutes (% Mobile Phase B): 0.0 (2); 1.0 (2); 9.0 (22); • 19.0 (28); 33.0 (63); 36.3 (100); 37.0 (2); and 42.0 (2).
Samples were prepared as 0.25 to 0.75 mg/mL solutions in 5% acetonitrile, 85% water, 10% 100 mM potassium phosphate for injection onto the HPLC.
The initial water content was 1.2%, as determined by Karl Fischer titration using a Brinkman Metrohm (Westbury, N.Y.) Karl Fischer Model 831 coulometer. After 6 months the water content of the samples stored in open containers at 25° C./60% RH and at 40° C./75% RH was 2.9% and 5.3%, respectively, an increase of 1.7% and 4.1%, respectively.

[5] = Storage stability of the crystalline hydrate at 40° C. and 75% RH
Protocol: A sample of the dihydrochloride salt of the invention, about 50 mg, was stored in a 20 mL glass vial at 40° C. and 75% relative humidity. At specific intervals, aliquots of sample were dispensed and analyzed by PXRD and by DSC and TGA. The low temperature (i.e. below 150° C.) features in the DSC and TGA traces are characteristic of a hydrate. The hydrate form is observed to be stable when stored at 40° C. and 75% RH.

[6] = 6 months, open containers, 25° C./60% RH
[7] = 6 months, open containers, 40° C./75% RH
[8] = six months at 25° C. and 60% relative humidity

CC(=O)N1CCN(CCN2[C@@H]3CC[C@H]2C[C@@H](NC(=O)c2nn(C(C)C)c4ccccc24)C3)CC1.O=P(O)(O)O [phosphate (1), Phosphoric Acid Salt of 1-isopropyl-1H-indazole-3-carboxylic Acid {(1S,3R,5R)-8-[2-(4-acetylpiperazin-1-yl)ethyl]-8-azabicyclo[3.2.1]oct-3-yl}amide]
TGA: temperature of weight loss [1]: loss <100 °C | TGA: weight loss [1]: 3-5% wt.

CC(=O)O [acetate]
DSC endotherm (temperature of endothermic heat flow) [2]: ˜100 °C | TGA: temperature of weight loss [1]: ˜100 °C

CC(=O)N1CCN(CCN2[C@@H]3CC[C@H]2C[C@@H](NC(=O)c2nn(C(C)C)c4ccccc24)C3)CC1.Cl.Cl [dihydrochloride salt, 1-isopropyl-1H-indazole-3-carboxylic Acid {(1S,3R,5R)-8-[2-(4-acetylpiperazin-1-yl)ethyl]-8-azabicyclo[3.2.1]oct-3-yl}amide dihydrochloride]
weight gain (hygroscopicity) [3]: less than 1% | change in potency ([4]; 6 months of storage, all conditions (25° C./60% RH, 40° C./75% RH, open and closed)): no detectable change in potency | increase of water content [4, 6]: 1.7% | water content (Karl Fischer) [4, 6]: 2.9% | increase of water content [4, 7]: 4.1% | water content (Karl Fischer) [4, 7]: 5.3% | initial potency compared with the freebase (HPLC area percentage) ([4]; initial): 82.4% | water content (Karl Fischer) ([4]; initial): 1.2% | chemical degradation by HPLC [4, 8]: no chemical degradation | gain in moisture content [4, 8]: < 2% | DSC: temperature below which no (significant) thermal events [2]: about 200 °C | simultaneous melting and decomposition temperature (DSC and TGA) [2]: 180-200 °C | TGA: temperature below which no (significant) thermal event [1]: about 180 °C

CC(=O)N1CCN(CCN2[C@@H]3CC[C@H]2CC(NC(=O)c2nn(C(C)C)c4ccccc24)C3)CC1.Cc1ccc(S(=O)(=O)O)cc1 (stereo partly drawn) [tosylate, p-toluene Sulfonic Acid Salt of 1-isopropyl-1H-indazole-3-carboxylic acid {(1S,3R,5R)-8-[2-(4-acetylpiperazin-1-yl)ethyl]-8-azabicyclo[3.2.1]oct-3-yl}amide]
DSC endotherm (temperature of endothermic heat flow) [2]: >200 °C

O=[N+]([O-])O [nitrate]
DSC endotherm (temperature of endothermic heat flow) [2]: <100 °C | TGA: temperature of weight loss [1]: loss ˜150 °C | TGA: weight loss [1]: 5-6% wt.

CC(=O)N1CCN(CCN2[C@@H]3CC[C@H]2CC(NC(=O)c2nn(C(C)C)c4ccccc24)C3)CC1.Cl.Cl.O (stereo partly drawn) [hydrate, Crystalline hydrate of 1-isopropyl-1H-indazole-3-carboxylic Acid {(1S,3R,5R)-8-[2-(4-acetylpiperazin-1-yl)ethyl]-8-azabicyclo[3.2.1]oct-3-yl}amide dihydrochloride]
change in PXRD peak positions ([5]; 8 weeks vs 12 weeks at 40° C./75% RH): no significant change in PXRD peak positions | stability of hydrate form on storage ([5]; 40° C. and 75% RH): stable

benzoate
DSC endotherm (temperature of endothermic heat flow) [2]: <150 °C | TGA: temperature of weight loss [1]: ˜100 °C

Br.Br.CC(=O)N1CCN(CCN2[C@@H]3CC[C@H]2CC(NC(=O)c2nn(C(C)C)c4ccccc24)C3)CC1 (stereo partly drawn) [dihydrobromide salt, 1-isopropyl-1H-indazole-3-carboxylic Acid {(1S,3R,5R)-8-[2-(4-acetylpiperazin-1-yl)ethyl]-8-azabicyclo[3.2.1]oct-3-yl}amide dihydrobromide]
weight gain (hygroscopicity) [3]: less than 1% | DSC: temperature below which no (significant) thermal events [2]: about 230 °C | TGA: temperature below which no (significant) thermal event [1]: about 250 °C

CC(=O)N1CCN(CCN2[C@@H]3CC[C@H]2CC(NC(=O)c2nn(C(C)C)c4ccccc24)C3)CC1.O=C(O)/C=C/C(=O)O (stereo partly drawn) [fumarate, fumaric Acid Salt of 1-isopropyl-1H-indazole-3-carboxylic acid {(1S,3R,5R)-8-[2-(4-acetylpiperazin-1-yl)ethyl]-8-azabicyclo[3.2.1]oct-3-yl}amide]
DSC endotherm (temperature of endothermic heat flow) [2]: <150 °C | TGA: temperature of weight loss [1]: loss ˜100 °C | TGA: weight loss [1]: 5-6% wt.
